2 compounds from patent US8338404B2, “Composition and method for reducing allergen” (Kyowa Hakko Bio Co., Ltd., priority 2007, dated 2012) can be followed below.

The assay deals with T1, mite allergen Derf2 (Dermatophagoides farinae, UniProt Q00855).
T1 construct: mite allergen Derf2 contained in standard house dust; from tissue; host or cells: standard house dust (natural mite allergen, not recombinant)
T1 sequence (Q00855 18-146): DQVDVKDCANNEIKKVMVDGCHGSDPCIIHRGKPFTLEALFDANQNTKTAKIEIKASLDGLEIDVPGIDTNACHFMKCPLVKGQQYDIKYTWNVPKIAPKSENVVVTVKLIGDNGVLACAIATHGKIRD
Briefly: Effects of processed fiber for reducing mite allergen (sandwich ELISA). The note with it: 5% treatment solution, 1 hour; for Mite allergen concentration: 1 ml mite allergen buffer. It counts as biochemical. On the procedure:
At the outset, anti-Derf2 monoclonal antibody 15E11, which was diluted to 2 μg/ml in phosphate buffer (pH 7.4, containing 0.1% by weight of NaN3) was applied to the F16 Maxisorp Nunc-Immuno Module plate (NUNC) in amounts of 100 μl per well and subjected to sensitization at 4° C. for at least 1 day. After sensitization, the liquid was removed, a blocking reagent (1% by weight of bovine serum albumin and phosphate buffer (pH 7.2, containing 0.1% by weight of NaN3)) was added in amounts of 100 μl per well, and the reaction was allowed to proceed at 37° C. for 60 minutes. After the reaction, the plate was washed in phosphate buffer (pH 7.2, containing 0.1% by weight of polyoxyethylene (20) sorbitan monolaurate). Subsequently, the sample resulting from the reaction of mite allergens with the aforementioned solution was added dropwise thereto in amounts of 100 μl per well, and the reaction was allowed to proceed at 37° C. for 60 minutes.
After the reaction, the plate was washed in phosphate buffer (pH 7.2, containing 0.1% by weight of polyoxyethylene (20) sorbitan monolaurate). The peroxidase-labeled anti-Derf2 monoclonal antibody was dissolved to 200 μg/ml in distilled water, the resultant was diluted 1,000-fold with phosphate buffer (pH 7.2, containing 1% by weight of bovine serum albumin and 0.1% by weight of polyoxyethylene (20) sorbitan monolaurate), and the resulting solution was added in amounts of 100 μl per well. The reaction was allowed to proceed at 37° C. for 60 minutes, and the plate was first washed with phosphate buffer (pH 7.2, containing 0.1% by weight of polyoxyethylene (20) sorbitan monolaurate) and then with distilled water. Ortho-phenylenediamine dihydrochloride (26 mg tablet, Sigma Chemical Co.) and a hydrogen peroxide solution (13 μl) were added to 13 ml of 0.1 mol/l phosphate buffer (pH 6.2), the resultant was added in amounts of 100 μl per well, and the reaction was allowed to proceed at 37° C. for 5 minutes. Immediately thereafter, 50 μl each of 2 mol/l H2SO4 was introduced so as to terminate the reaction, and the absorbance (OD 490 nm) was assayed using a microplate spectrophotometer (Bio-Rad Laboratories Inc.)
The allergen-reducing fabric obtained in Example 8 was tested in terms of the effects of allergen reduction. As a control, a white cotton broadcloth and polyethylene terephthalate (PET) cloth were soaked via a padding method in an aqueous solution of 5% tannic acid (an equivalent of JP Patent Publication (kokai) No. 61-44821 A (1986)), the clothes were dried at 110° C. for 2 minutes, and the resultants were tested in terms of the effects of allergen reduction.
The clothes (5 cm×5 cm each) were introduced into reclosable plastic bags, 1 ml of phosphate buffer (pH 7.2) of mite allergen was added thereto, and the resultants were allowed to stand for 1 hour. The centrifuged samples were subjected to enzyme immunoassay (i.e., sandwich ELISA) in the same manner as in Test Example 1 to inspect the effects of reducing mite allergen Derf2.
In general terms: ELISA stands for enzyme-linked immunosorbent assay.

Setting [1] is: PET cloth 5 cm×5 cm, not treated: 970 ng/ml.
[2] abbreviates: cotton broadcloth 5 cm×5 cm, not treated: 720 ng/ml.

With `CC(=O)N1C[C@H](O)C[C@H]1C(=O)O` [N-acetyl-trans-4-hydroxy-L-proline], the Mite allergen concentration reads like this: under setting [1], 2.3 ng/mL; under setting [2], 3.5 ng/mL. For the same compound, the Reduction is given as 99.8% (PET cloth 5 cm×5 cm) and 99.5% (cotton broadcloth 5 cm×5 cm).

Regarding `O=C(OC[C@H]1O[C@@H](OC(=O)c2cc(O)c(O)c(OC(=O)c3cc(O)c(O)c(O)c3)c2)[C@H](OC(=O)c2cc(O)c(O)c(OC(=O)c3cc(O)c(O)c(O)c3)c2)[C@@H](OC(=O)c2cc(O)c(O)c(OC(=O)c3cc(O)c(O)c(O)c3)c2)[C@@H]1OC(=O)c1cc(O)c(O)c(OC(=O)c2cc(O)c(O)c(O)c2)c1)c1cc(O)c(O)c(OC(=O)c2cc(O)c(O)c(O)c2)c1` [tannic acid], the Mite allergen concentration is, setting by setting: under setting [1], 190 ng/mL; under setting [2], 120 ng/mL. Also, the Reduction reads like this: (PET cloth 5 cm×5 cm) 80%; (cotton broadcloth 5 cm×5 cm) 83%.
